According to paper PMC8924211 (Nature Communications, 2022):
Numbering of substitutions follows the chain as printed.

Key:
Assay in all cases: Calcium assay, HEK293/Gα16 cells, GAL2R mutants
Type in all cases: cell-based
GAL2R mutants [1] = target: T1, GAL2R mutants (Homo sapiens, UniProt O43603, A170S); conditions: GAL2R A170ECL2S
T1 construct: expressed in transfected cells; host or cells: HEK293
T1 sequence (O43603 1-387 A170S): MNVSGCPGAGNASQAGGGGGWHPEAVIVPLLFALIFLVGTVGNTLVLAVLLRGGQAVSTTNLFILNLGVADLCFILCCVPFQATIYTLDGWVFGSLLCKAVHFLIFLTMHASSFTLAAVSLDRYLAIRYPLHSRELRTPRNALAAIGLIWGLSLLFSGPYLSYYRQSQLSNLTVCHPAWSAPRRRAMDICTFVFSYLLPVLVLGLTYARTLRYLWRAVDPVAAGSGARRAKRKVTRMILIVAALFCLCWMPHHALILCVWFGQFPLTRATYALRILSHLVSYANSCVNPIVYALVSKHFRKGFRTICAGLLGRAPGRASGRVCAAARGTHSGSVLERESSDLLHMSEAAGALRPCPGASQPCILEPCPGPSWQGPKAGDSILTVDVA

GAL2R mutants [2] = target: T2, GAL2R mutants (Homo sapiens, UniProt O43603, F264A); conditions: GAL2R F264ECL3A
T2 construct: expressed in transfected cells; host or cells: HEK293
T2 sequence (O43603 1-387 F264A): T1 sequence (O43603 1-387 A170S) with S170A, F264A

GAL2R mutants [3] = target: T3, GAL2R mutants (Homo sapiens, UniProt O43603, I256A); conditions: GAL2R I2566.55A
T3 construct: expressed in transfected cells; host or cells: HEK293
T3 sequence (O43603 1-387 I256A): T1 sequence (O43603 1-387 A170S) with S170A, I256A

GAL2R mutants [4] = target: T4, GAL2R mutants (Homo sapiens, UniProt O43603, I85A); conditions: GAL2R I852.64A
T4 construct: expressed in transfected cells; host or cells: HEK293
T4 sequence (O43603 1-387 I85A): T1 sequence (O43603 1-387 A170S) with I85A, S170A

GAL2R mutants [5] = target: T5, GAL2R mutants (Homo sapiens, UniProt O43603, Y86A); conditions: GAL2R Y862.65A
T5 construct: expressed in transfected cells; host or cells: HEK293
T5 sequence (O43603 1-387 Y86A): T1 sequence (O43603 1-387 A170S) with Y86A, S170A

[6] = response of 100 μM spexin compared to WT, mean ± S.E.M.
[7] = response of 100 μM spexin compared to WT

Emax (GAL2R mutants [1]; [6]): 17.66±5.3% | EC50 (GAL2R mutants [1]; spexin, replicate 1): 95.4 nM | Emax (GAL2R mutants [1]; spexin, replicate 1): 11.3367% | EC50 (GAL2R mutants [1]; spexin, replicate 2): 151.4 nM | Emax (GAL2R mutants [1]; spexin, replicate 2): 13.424% | EC50 (GAL2R mutants [1]; spexin, replicate 3): 150.6 nM | Emax (GAL2R mutants [1]; spexin, replicate 3): 28.2269% | Emax (GAL2R mutants [2]; [6]): 40.26±1.3% | Emax (GAL2R mutants [2]; spexin, replicate 1): 42.8699% | Emax (GAL2R mutants [2]; spexin, replicate 2): 39.5775% | Emax (GAL2R mutants [2]; spexin, replicate 3): 38.3476% | Emax (GAL2R mutants [3]; [6]): 67.24±0.5% | Emax (GAL2R mutants [3]; spexin, replicate 1): 66.4324% | EC50 (GAL2R mutants [3]; spexin, replicate 2): 437.9 nM | Emax (GAL2R mutants [3]; spexin, replicate 2): 67.278% | EC50 (GAL2R mutants [3]; spexin, replicate 3): 924.3 nM | Emax (GAL2R mutants [3]; spexin, replicate 3): 68.0243% | Emax (GAL2R mutants [4]; spexin, replicate 1): no response | Emax (GAL2R mutants [4]; spexin, replicate 2): no response | Emax (GAL2R mutants [4]; spexin, replicate 3): no response | Emax (GAL2R mutants [5]; spexin, replicate 1): no response | Emax (GAL2R mutants [5]; spexin, replicate 2): no response | Emax (GAL2R mutants [5]; spexin, replicate 3): no response
Substance: spexin
Emax (GAL2R mutants [4]; [7]): NR (NR, no response, refers to response < 10% compared to WT receptor (spexin at 100 μM)) | Emax (GAL2R mutants [5]; [7]): NR (NR, no response, refers to response < 10% compared to WT receptor (spexin at 100 μM))
